Results: the CheMixHub viscosity set
± gives the uncertainty stated by the source.

Assay: xn = mol fraction of the nth substance listed

c1ccccc1 + CCO
Conditions	viscosity [mPa·s]
293.15 K, 101 kPa, x1 = 0.16	1.017 ± 0.027
293.15 K, 101 kPa, x1 = 0.37	0.81 ± 0.021
293.15 K, 101 kPa, x1 = 0.64	0.657 ± 0.017
298.15 K, 101 kPa, x1 = 0.1259	0.916 ± 0.009
298.15 K, 101 kPa, x1 = 0.16	0.926 ± 0.025
298.15 K, 101 kPa, x1 = 0.2547	0.805 ± 0.008
298.15 K, 101 kPa, x1 = 0.37	0.759 ± 0.02
298.15 K, 101 kPa, x1 = 0.4079	0.708 ± 0.007
298.15 K, 101 kPa, x1 = 0.554	0.643 ± 0.007
298.15 K, 101 kPa, x1 = 0.64	0.624 ± 0.017
298.15 K, 101 kPa, x1 = 0.676	0.611 ± 0.006
298.15 K, 101 kPa, x1 = 0.779	0.583 ± 0.006
298.15 K, 101 kPa, x1 = 0.842	0.584 ± 0.006
298.15 K, 101 kPa, x1 = 0.91	0.587 ± 0.006
298.15 K, 101.33 kPa, x1 = 0.0518	1.013 ± 0.008
298.15 K, 101.33 kPa, x1 = 0.1059	0.959 ± 0.006
298.15 K, 101.33 kPa, x1 = 0.1078	0.955 ± 0.008
298.15 K, 101.33 kPa, x1 = 0.1897	0.88 ± 0.006
298.15 K, 101.33 kPa, x1 = 0.1934	0.884 ± 0.007
298.15 K, 101.33 kPa, x1 = 0.2966	0.794 ± 0.005
298.15 K, 101.33 kPa, x1 = 0.3308	0.776 ± 0.007
298.15 K, 101.33 kPa, x1 = 0.3795	0.728 ± 0.006
298.15 K, 101.33 kPa, x1 = 0.3983	0.731 ± 0.005
298.15 K, 101.33 kPa, x1 = 0.4887	0.681 ± 0.005
298.15 K, 101.33 kPa, x1 = 0.5514	0.651 ± 0.006
298.15 K, 101.33 kPa, x1 = 0.5729	0.647 ± 0.006
298.15 K, 101.33 kPa, x1 = 0.5993	0.638 ± 0.004
298.15 K, 101.33 kPa, x1 = 0.6579	0.607 ± 0.005
298.15 K, 101.33 kPa, x1 = 0.6973	0.61 ± 0.004
298.15 K, 101.33 kPa, x1 = 0.7073	0.588 ± 0.005
298.15 K, 101.33 kPa, x1 = 0.7987	0.59 ± 0.004
298.15 K, 101.33 kPa, x1 = 0.8126	0.567 ± 0.005
298.15 K, 101.33 kPa, x1 = 0.8995	0.582 ± 0.004
298.15 K, 101.33 kPa, x2 = 0.0192	0.567 ± 0.005
298.15 K, 101.33 kPa, x2 = 0.113	0.645 ± 0.0052
298.15 K, 101.33 kPa, x2 = 0.2	0.597 ± 0.012
298.15 K, 101.33 kPa, x2 = 0.306	0.642 ± 0.0051
298.15 K, 101.33 kPa, x2 = 0.5	0.712 ± 0.0057
298.15 K, 101.33 kPa, x2 = 0.692	0.816 ± 0.0065
298.15 K, 101.33 kPa, x2 = 0.892	0.977 ± 0.0078
298.16 K, 101 kPa, x2 = 0.1	0.583 ± 0.005
298.16 K, 101 kPa, x2 = 0.2	0.587 ± 0.005
298.16 K, 101 kPa, x2 = 0.3	0.605 ± 0.005
298.16 K, 101 kPa, x2 = 0.4	0.635 ± 0.005
298.16 K, 101 kPa, x2 = 0.5	0.675 ± 0.006
298.16 K, 101 kPa, x2 = 0.6	0.723 ± 0.006
298.16 K, 101 kPa, x2 = 0.7	0.782 ± 0.007
298.16 K, 101 kPa, x2 = 0.8	0.861 ± 0.007
298.16 K, 101 kPa, x2 = 0.9	0.959 ± 0.008
303 K, 100 kPa, x2 = 0.4	0.596 ± 0.005
303.15 K, 101 kPa, x1 = 0.1259	0.841 ± 0.009
303.15 K, 101 kPa, x1 = 0.16	0.839 ± 0.022
303.15 K, 101 kPa, x1 = 0.2547	0.737 ± 0.008
303.15 K, 101 kPa, x1 = 0.37	0.681 ± 0.018
303.15 K, 101 kPa, x1 = 0.4079	0.65 ± 0.007
303.15 K, 101 kPa, x1 = 0.554	0.593 ± 0.006
303.15 K, 101 kPa, x1 = 0.64	0.571 ± 0.015
303.15 K, 101 kPa, x1 = 0.676	0.564 ± 0.006
303.15 K, 101 kPa, x1 = 0.779	0.544 ± 0.006
303.15 K, 101 kPa, x1 = 0.842	0.546 ± 0.006
303.15 K, 101 kPa, x1 = 0.91	0.547 ± 0.006
308 K, 100 kPa, x2 = 0.4	0.551 ± 0.004
308.15 K, 101 kPa, x1 = 0.1259	0.769 ± 0.008
308.15 K, 101 kPa, x1 = 0.16	0.772 ± 0.021
308.15 K, 101 kPa, x1 = 0.2547	0.675 ± 0.007
308.15 K, 101 kPa, x1 = 0.37	0.623 ± 0.017
308.15 K, 101 kPa, x1 = 0.4079	0.598 ± 0.006
308.15 K, 101 kPa, x1 = 0.554	0.548 ± 0.006
308.15 K, 101 kPa, x1 = 0.64	0.538 ± 0.014
308.15 K, 101 kPa, x1 = 0.676	0.526 ± 0.006
308.15 K, 101 kPa, x1 = 0.779	0.511 ± 0.005
308.15 K, 101 kPa, x1 = 0.842	0.511 ± 0.005
308.15 K, 101 kPa, x1 = 0.91	0.51 ± 0.005
313 K, 100 kPa, x2 = 0.4	0.528 ± 0.004
313.15 K, 101 kPa, x1 = 0.1259	0.705 ± 0.007
313.15 K, 101 kPa, x1 = 0.16	0.699 ± 0.019
313.15 K, 101 kPa, x1 = 0.2547	0.622 ± 0.007
313.15 K, 101 kPa, x1 = 0.37	0.567 ± 0.015
313.15 K, 101 kPa, x1 = 0.4079	0.553 ± 0.006
313.15 K, 101 kPa, x1 = 0.5	0.5326 ± 0.0079
313.15 K, 101 kPa, x1 = 0.554	0.51 ± 0.005
313.15 K, 101 kPa, x1 = 0.64	0.5 ± 0.013
313.15 K, 101 kPa, x1 = 0.676	0.488 ± 0.005
313.15 K, 101 kPa, x1 = 0.7	0.4812 ± 0.0072
313.15 K, 101 kPa, x1 = 0.779	0.478 ± 0.005
313.15 K, 101 kPa, x1 = 0.842	0.481 ± 0.005
313.15 K, 101 kPa, x1 = 0.91	0.479 ± 0.005
313.15 K, 101.33 kPa, x2 = 0.113	0.525 ± 0.0042
313.15 K, 101.33 kPa, x2 = 0.306	0.515 ± 0.0041
313.15 K, 101.33 kPa, x2 = 0.5	0.555 ± 0.0044
313.15 K, 101.33 kPa, x2 = 0.692	0.629 ± 0.005
313.15 K, 101.33 kPa, x2 = 0.892	0.748 ± 0.006
318 K, 100 kPa, x2 = 0.4	0.477 ± 0.004
318.15 K, 101 kPa, x1 = 0.1259	0.646 ± 0.007
318.15 K, 101 kPa, x1 = 0.2547	0.573 ± 0.006
318.15 K, 101 kPa, x1 = 0.4079	0.514 ± 0.005
318.15 K, 101 kPa, x1 = 0.554	0.475 ± 0.005
318.15 K, 101 kPa, x1 = 0.676	0.458 ± 0.005
318.15 K, 101 kPa, x1 = 0.779	0.447 ± 0.005
318.15 K, 101 kPa, x1 = 0.842	0.451 ± 0.005
318.15 K, 101 kPa, x1 = 0.91	0.451 ± 0.005
323.15 K, 101.33 kPa, x2 = 0.2	0.424 ± 0.0085
